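Values below derive from 48-hour exposures of cells grown in 96-well plates, with endpoints linearly interpolated between the two concentrations bracketing the appropriate inhibition level. TGI denotes the concentration required for complete inhibition of growth.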 Where a SMILES comes first, the peptide text is derived from it. [ ]: non-standard residue; d: D form. ΔPro = O=C(O)[CH]1C=CCN1
Assays:
Experiment in all cases: NCI tumour cell line growth inhibition, 48 h
A498 renal = test system: A498 renal
A549 NSCLC = test system: A549 NSCLC
HCT-15 colon = test system: HCT-15 colon
HOP-92 NSCLC = test system: HOP-92 NSCLC
HS 578T breast = test system: HS 578T breast
IGROV1 ovarian = test system: IGROV1 ovarian
KM12 colon = test system: KM12 colon
MALME-3M melanoma = test system: MALME-3M melanoma
MCF7 breast = test system: MCF7 breast
MDA-MB-435 = test system: MDA-MB-435
MOLT-4 leukemia = test system: MOLT-4 leukemia
NCI-H23 lung = test system: NCI-H23 lung
RXF 393 renal = test system: RXF 393 renal
SF-268 CNS = test system: SF-268 CNS
SF-539 CNS = test system: SF-539 CNS
UACC-62 melanoma = test system: UACC-62 melanoma

| SMILES | TGI (A498 renal) [µM] | TGI (A549 NSCLC) [µM] | TGI (HCT-15 colon) [µM] | TGI (HOP-92 NSCLC) [µM] | TGI (HS 578T breast) [µM] | TGI (IGROV1 ovarian) [µM] | TGI (KM12 colon) [µM] | TGI (MALME-3M melanoma) [µM] | TGI (MCF7 breast) [µM] | TGI (MDA-MB-435) [µM] | TGI (MOLT-4 leukemia) [µM] | TGI (NCI-H23 lung) [µM] | TGI (RXF 393 renal) [µM] | TGI (SF-268 CNS) [µM] | TGI (SF-539 CNS) [µM] | TGI (UACC-62 melanoma) [µM] |
| --- | --- | --- | --- | --- | --- | --- | --- | --- | --- | --- | --- | --- | --- | --- | --- | --- |
| CC(=O)OCC1(C)C(O)CCC2(C)C1CCC1CC3CC12CCC3(O)CO (configuration not stated) | 8.59 | > 100 | > 100 | > 100 | > 100 | > 100 | > 100 | > 100 | > 100 | > 100 | > 100 | > 100 | > 100 | > 100 | > 100 | > 100 |
| O=C(O)C1C=CCN1C(=O)C1C=CCN1C(=O)C1C=CCN1 (configuration not stated) (H-[ΔPro]-[ΔPro]-[ΔPro]-OH; configuration not given here) | > 100 | > 100 | > 100 | > 100 | > 100 | > 100 | > 100 | > 100 | > 100 | > 100 | > 100 | > 100 | > 100 | > 100 | > 100 | > 100 |
| N#Cc1c(Cl)cc(C#N)n2c1nc1ccccc12 | 49.9 | 22.2 | 21.2 | 16.8 | 83.7 | 28.3 | 23.2 | 18.5 | 24.9 | 26.2 | 5.4 | 26.8 | 28.7 | 13.6 | 19.1 | 38.4 |
| CSC1=NN(C(C)=O)C(C(OC(C)=O)C(OC(C)=O)C(OC(C)=O)C(COC(C)=O)OC(C)=O)S1 (configuration not stated) | > 100 | > 100 | > 100 | > 100 | > 100 | > 100 | > 100 | > 100 | > 100 | > 100 | > 100 | > 100 | > 100 | > 100 | > 100 | > 100 |
| CCCCCCCCOC(=O)C12Oc3ccc(-c4ccc5c(c4O)C(O)=C4C(=O)CC(C)C(O)C4(C(=O)OCCCCCCCC)O5)c(O)c3C(O)=C1C(=O)CC(C)C2O (configuration not stated) | > 100 | > 100 | > 100 | 42.5 | > 100 | 61.3 | > 100 | > 100 | 44.9 | > 100 | 60.6 | 31.5 | 11.3 | > 100 | 19.7 | 99.3 |
| CC1(C)Cc2c(sc3[nH]c(=S)[nH]c(=S)c23)CS1 | > 100 | > 100 | > 100 | 50.4 | > 100 | > 100 | > 100 | 75.6 | > 100 | > 100 | > 100 | > 100 | > 100 | > 100 | > 100 | 67.4 |
| COc1ccc(-c2sc(Br)c3c2C(=O)C2OC(=O)NC32)cc1OC (configuration not stated) | > 100 | > 100 | > 100 | > 100 | > 100 | > 100 | > 100 | > 100 | > 100 | > 100 | > 100 | > 100 | > 100 | > 100 | > 100 | > 100 |
| CCO/C(O)=C(/C(=N)N1CCOCC1)C(=O)NC(C)C | > 100 | > 100 | > 100 | > 100 | > 100 | > 100 | > 100 | > 100 | > 100 | > 100 | > 100 | > 100 | > 100 | > 100 | > 100 | > 100 |
| CCN(CC)C1Oc2cc3c(cc2C(c2cc(OC)c(O)c(OC)c2)C1C)OCO3 (configuration not stated) | 64.8 | 60 | > 38.6 | 77.9 | 50.9 | 50 | 22.5 | 30 | 27.3 | 6.05 | 27.2 | > 100 | > 31.5 | > 100 | 34.7 | 26.2 |
| COCn1cc(C2=C(C)C(=O)C(C)=C(C)C2=O)cn1 | > 100 | > 100 | > 100 | 37.5 | > 100 | > 100 | > 100 | > 100 | > 100 | 33.9 | 42 | > 100 | > 100 | 66 | > 100 | > 100 |
| Cc1cc(N2CCOCC2)nc2ccc(Cc3ccc4nc(N5CCOCC5)cc(C)c4c3)cc12 | > 100 | > 100 | > 100 | > 100 | > 100 | > 100 | > 100 | > 100 | > 100 | > 100 | > 100 | > 100 | > 100 | > 100 | 71.3 | > 100 |
| C/C(=C\COP(=O)(O)OP(=O)(O)O)CCCCCCOCc1ccccc1 | > 100 | > 100 | > 100 | > 100 | > 100 | > 100 | > 100 | > 100 | > 100 | > 100 | > 100 | > 100 | > 100 | > 100 | > 100 | > 100 |

Source: PubChem BioAssay (NCI)
